Measurements: ChEMBL document CHEMBL5665443, “Enzyme Inhibitor Single Concentration assay results for EUbOPEN Chemogenomics Library” (2024)

How the values were obtained:
[1] = biological target: Methyl-CpG-binding domain protein 4 (Homo sapiens) (UniProt O95243); conditions: Compound Concentration 10.0 uM;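 also: MBD4 activity read as fluorescence at 594 nm from cleavage and release of a quenched duplex DNA oligonucleotide, with APE1 coupled to incise the strand and raise turnover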
[2] = biological target: Endonuclease 8-like 1 (Homo sapiens) (UniProt Q96FI4); conditions: Compound Concentration 10.0 uM, Hit No;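 also: fluorescence at 594 nm from quenched duplex DNA oligonucleotides released by NEIL1 cleavage and strand separation, reported as reduction of this enzyme activity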
Endonuclease 8-like 1 (Homo sapiens), sequence (Q96FI4 whole entry): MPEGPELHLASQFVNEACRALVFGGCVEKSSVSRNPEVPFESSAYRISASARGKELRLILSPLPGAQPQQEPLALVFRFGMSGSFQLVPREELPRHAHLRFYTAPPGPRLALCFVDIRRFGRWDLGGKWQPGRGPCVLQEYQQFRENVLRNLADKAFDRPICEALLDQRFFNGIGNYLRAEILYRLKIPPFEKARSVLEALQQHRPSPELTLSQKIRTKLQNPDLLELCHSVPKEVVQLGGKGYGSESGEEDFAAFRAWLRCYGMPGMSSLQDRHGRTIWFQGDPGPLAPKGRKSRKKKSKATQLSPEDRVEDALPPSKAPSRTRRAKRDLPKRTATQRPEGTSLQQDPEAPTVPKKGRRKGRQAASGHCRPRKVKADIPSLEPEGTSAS

[3] = biological target: T1, Adenine DNA glycosylase (Homo sapiens) (UniProt Q9UIF7); conditions: Compound Concentration 10.0 uM, Hit No;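 also: human MUTYH activity read as 594 nm fluorescence from cleavage and release of a quenched DNA duplex, coupled with APE1 for strand incision, lower signal meaning inhibition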
T1 sequence (whole entry): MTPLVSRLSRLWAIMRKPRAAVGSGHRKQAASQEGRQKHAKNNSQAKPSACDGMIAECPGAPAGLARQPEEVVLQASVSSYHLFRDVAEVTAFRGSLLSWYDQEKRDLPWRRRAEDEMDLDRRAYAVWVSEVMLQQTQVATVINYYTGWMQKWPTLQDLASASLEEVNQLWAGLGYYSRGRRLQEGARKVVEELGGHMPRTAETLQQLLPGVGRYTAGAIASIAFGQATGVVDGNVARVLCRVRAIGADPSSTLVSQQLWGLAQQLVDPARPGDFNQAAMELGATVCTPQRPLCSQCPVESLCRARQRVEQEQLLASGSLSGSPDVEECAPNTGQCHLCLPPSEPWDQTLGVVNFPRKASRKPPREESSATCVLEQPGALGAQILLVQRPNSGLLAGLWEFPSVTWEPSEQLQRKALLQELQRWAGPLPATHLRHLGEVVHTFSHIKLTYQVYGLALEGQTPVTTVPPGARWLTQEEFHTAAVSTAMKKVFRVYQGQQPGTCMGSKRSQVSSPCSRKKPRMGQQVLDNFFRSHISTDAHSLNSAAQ

[4] = biological target: Uracil-DNA glycosylase (Homo sapiens) (UniProt P13051); conditions: Compound Concentration 10.0 uM, Hit No;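 also: UNG excision on a quenched double-stranded DNA oligo probe, with APE1 added for strand incision and turnover, read as fluorescence at 594 nm as strands separate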
Uracil-DNA glycosylase (Homo sapiens), sequence (P13051 whole entry): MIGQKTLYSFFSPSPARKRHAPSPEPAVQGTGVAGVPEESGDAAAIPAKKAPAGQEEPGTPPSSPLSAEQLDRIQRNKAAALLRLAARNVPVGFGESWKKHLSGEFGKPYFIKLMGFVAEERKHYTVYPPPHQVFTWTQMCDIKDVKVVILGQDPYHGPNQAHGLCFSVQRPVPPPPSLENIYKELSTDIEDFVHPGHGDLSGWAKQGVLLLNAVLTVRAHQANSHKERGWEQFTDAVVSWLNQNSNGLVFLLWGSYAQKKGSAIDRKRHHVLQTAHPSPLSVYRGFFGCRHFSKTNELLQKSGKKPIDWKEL

[5] = biological target: T2, Single-strand selective monofunctional uracil DNA glycosylase (Homo sapiens) (UniProt Q53HV7); conditions: Compound Concentration 10.0 uM, Hit No;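 also: enzymatic SMUG1 assay coupled with APE1, reading fluorescence at 594 nm released when a quenched double-stranded DNA oligonucleotide substrate is cleaved and separated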
T2 sequence (whole entry): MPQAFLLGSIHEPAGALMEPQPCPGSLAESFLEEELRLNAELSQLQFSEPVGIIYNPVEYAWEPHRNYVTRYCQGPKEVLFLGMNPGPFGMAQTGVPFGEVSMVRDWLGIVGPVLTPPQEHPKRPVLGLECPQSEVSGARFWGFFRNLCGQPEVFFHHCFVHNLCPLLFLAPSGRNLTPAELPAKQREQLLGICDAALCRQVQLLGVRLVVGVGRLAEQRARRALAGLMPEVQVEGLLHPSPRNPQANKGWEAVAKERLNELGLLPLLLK

[6] = biological target: T3, Endonuclease 8-like 2 (Homo sapiens) (UniProt Q969S2); conditions: Compound Concentration 10.0 uM, Hit No;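 also: fluorescence at 594 nm reports NEIL2 cutting and release of a quenched double-stranded DNA oligo substrate, reduced signal read as inhibition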
T3 sequence (whole entry): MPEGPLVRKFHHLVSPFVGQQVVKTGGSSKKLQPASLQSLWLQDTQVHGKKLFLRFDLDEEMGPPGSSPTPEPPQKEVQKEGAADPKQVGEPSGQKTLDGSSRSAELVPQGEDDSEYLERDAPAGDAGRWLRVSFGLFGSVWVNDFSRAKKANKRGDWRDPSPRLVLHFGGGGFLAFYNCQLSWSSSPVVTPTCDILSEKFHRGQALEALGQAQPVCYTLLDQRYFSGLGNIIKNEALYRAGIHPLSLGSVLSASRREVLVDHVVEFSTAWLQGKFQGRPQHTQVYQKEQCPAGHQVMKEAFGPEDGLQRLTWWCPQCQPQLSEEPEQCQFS

[7] = biological target: DNA-3-methyladenine glycosylase (Homo sapiens) (UniProt P29372); conditions: Compound Concentration 10.0 uM;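 also: enzyme assay where MPG cuts a quenched duplex DNA oligonucleotide probe, paired with APE1 for strand incision and turnover, read as fluorescence at 594 nm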
DNA-3-methyladenine glycosylase (Homo sapiens), sequence (P29372 whole entry): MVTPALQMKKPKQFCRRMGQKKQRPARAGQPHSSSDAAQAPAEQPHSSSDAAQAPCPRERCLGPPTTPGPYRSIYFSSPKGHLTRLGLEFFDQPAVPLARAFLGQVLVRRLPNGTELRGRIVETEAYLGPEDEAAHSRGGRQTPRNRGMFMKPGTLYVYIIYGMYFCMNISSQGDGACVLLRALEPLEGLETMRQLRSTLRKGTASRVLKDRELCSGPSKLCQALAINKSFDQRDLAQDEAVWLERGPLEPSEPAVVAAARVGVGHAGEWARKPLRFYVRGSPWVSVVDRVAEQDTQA

[8] = biological target: N-glycosylase/DNA lyase (Homo sapiens) (UniProt O15527); conditions: Compound Concentration 10.0 uM, Hit No;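 also: OGG1 cleavage of a quenched duplex DNA oligonucleotide, coupled to APE1 for strand incision, read as fluorescence at 594 nm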
N-glycosylase/DNA lyase (Homo sapiens), sequence (O15527 whole entry): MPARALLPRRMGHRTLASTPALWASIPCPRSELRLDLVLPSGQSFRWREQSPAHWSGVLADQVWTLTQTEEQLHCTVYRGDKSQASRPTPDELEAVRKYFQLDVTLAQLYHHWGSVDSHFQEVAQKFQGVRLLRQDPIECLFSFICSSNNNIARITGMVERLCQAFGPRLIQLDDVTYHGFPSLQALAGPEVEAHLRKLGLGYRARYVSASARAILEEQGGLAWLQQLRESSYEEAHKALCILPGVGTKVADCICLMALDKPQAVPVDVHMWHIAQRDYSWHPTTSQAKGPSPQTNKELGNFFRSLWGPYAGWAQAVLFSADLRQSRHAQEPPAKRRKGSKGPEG

[9] = biological target: G/T mismatch-specific thymine DNA glycosylase (Homo sapiens) (UniProt Q13569); conditions: Compound Concentration 10.0 uM;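 also: human TDG cleavage of quenched duplex DNA oligonucleotides coupled to APE1, strand release read as fluorescence at 594 nm, inhibition of TDG activity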
G/T mismatch-specific thymine DNA glycosylase (Homo sapiens), sequence (Q13569 whole entry): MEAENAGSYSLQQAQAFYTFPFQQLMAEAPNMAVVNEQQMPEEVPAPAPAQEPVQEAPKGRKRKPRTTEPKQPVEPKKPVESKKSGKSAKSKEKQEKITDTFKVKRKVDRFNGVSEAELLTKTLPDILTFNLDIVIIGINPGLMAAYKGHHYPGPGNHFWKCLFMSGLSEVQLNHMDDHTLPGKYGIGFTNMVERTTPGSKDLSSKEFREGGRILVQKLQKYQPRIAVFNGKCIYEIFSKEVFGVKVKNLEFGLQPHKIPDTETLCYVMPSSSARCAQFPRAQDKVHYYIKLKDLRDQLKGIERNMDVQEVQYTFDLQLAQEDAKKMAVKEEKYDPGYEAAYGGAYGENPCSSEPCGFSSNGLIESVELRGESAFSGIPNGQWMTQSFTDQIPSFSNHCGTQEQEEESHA

[10] = biological target: T4, Endonuclease III-like protein 1 (Homo sapiens) (UniProt P78549); conditions: Compound Concentration 10.0 uM, Hit No;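 also: enzyme assay tracking NTHL1 cutting and release of a quenched double-stranded DNA oligo substrate, read as fluorescence at 594 nm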
T4 sequence (whole entry): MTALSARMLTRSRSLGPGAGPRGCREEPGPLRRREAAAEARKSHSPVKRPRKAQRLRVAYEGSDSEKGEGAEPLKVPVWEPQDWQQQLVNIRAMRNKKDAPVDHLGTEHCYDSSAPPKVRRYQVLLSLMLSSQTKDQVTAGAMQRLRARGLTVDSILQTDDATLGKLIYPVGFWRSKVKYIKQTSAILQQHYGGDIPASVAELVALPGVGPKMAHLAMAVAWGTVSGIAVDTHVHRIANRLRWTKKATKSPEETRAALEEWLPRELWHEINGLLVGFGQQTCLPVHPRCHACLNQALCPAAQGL

Methyl-CpG-binding domain protein 4 (Homo sapiens), sequence (O95243 whole entry, the tested form may be a part): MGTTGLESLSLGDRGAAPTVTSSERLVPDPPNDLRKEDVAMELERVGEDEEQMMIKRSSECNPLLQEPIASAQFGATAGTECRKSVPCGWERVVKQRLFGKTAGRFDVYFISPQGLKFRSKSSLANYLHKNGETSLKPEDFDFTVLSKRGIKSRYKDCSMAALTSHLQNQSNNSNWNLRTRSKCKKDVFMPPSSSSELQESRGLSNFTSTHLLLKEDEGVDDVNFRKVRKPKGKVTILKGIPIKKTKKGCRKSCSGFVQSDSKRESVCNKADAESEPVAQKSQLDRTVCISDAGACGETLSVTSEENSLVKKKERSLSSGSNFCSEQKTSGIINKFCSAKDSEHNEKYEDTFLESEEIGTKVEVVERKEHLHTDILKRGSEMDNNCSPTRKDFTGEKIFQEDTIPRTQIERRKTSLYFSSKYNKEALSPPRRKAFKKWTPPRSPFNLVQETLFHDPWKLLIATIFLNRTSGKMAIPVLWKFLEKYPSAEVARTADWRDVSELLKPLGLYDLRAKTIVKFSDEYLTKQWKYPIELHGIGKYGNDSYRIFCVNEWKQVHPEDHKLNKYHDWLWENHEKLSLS

| Structure (SMILES) | inhibition ([1]; Hit No) | inhibition [2] | inhibition [3] | inhibition [4] | inhibition [5] | inhibition [6] | inhibition ([7]; Hit No) | inhibition [8] | inhibition ([9]; Hit No) | inhibition [10] | inhibition ([7]; Hit Yes) | inhibition ([9]; Hit Yes) | inhibition ([1]; Hit Yes) |
| --- | --- | --- | --- | --- | --- | --- | --- | --- | --- | --- | --- | --- | --- |
| CCOc1nc2cccc(C(=O)O)c2n1Cc1ccc(-c2ccccc2-c2nnn[nH]2)cc1 | 1.2% | 2.02% | 2.84% | -8.46% | -0.0333% | 7% | -3.68% | 0.813% | 6.47% | – | – | – | – |
| Cc1ccccc1C(=O)Nc1ccc(C(=O)N2CCCC(O)c3cc(Cl)ccc32)c(C)c1 (centres undefined) | -1.3% | 6.76% | 12.2% | -8.3% | -8.66% | 1.01% | 0.836% | -1.2% | 18.4% | – | – | – | – |
| Cc1ccc(O)c([C@H](CCN(C(C)C)C(C)C)c2ccccc2)c1 | – | 5.28% | 8.6% | – | – | 2.01% | -5.07% | -3.4% | 2.93% | -3.21% | – | – | – |
| Cc1nnc2n1-c1sc(CCC(=O)N3CCOCC3)cc1C(c1ccccc1Cl)=NC2 | -1.19% | 5.28% | 16.7% | -6.5% | -7.88% | 7.25% | -4.33% | 0.211% | 14.6% | – | – | – | – |
| C[C@@H](NCCc1ccc(O)cc1)[C@@H](O)c1ccc(O)cc1 (relative stereo) | – | -5.25% | 11.7% | – | – | 6.25% | -3.37% | -4.18% | 5% | 17.3% | – | – | – |
| C/C(=N\NC(=O)[C@@H]1C(=O)NC[C@H]1c1ccccc1)c1cccc(Br)c1 | 0.963% | -1.98% | 11% | -1.98% | 9.22% | 6.5% | -1.9% | -0.141% | 17.2% | – | – | – | – |
| Cc1noc(-c2ccc(-c3ccc(CC(=O)O)cc3)cc2)c1NC(=O)O[C@H](C)c1ccccc1Cl | 45.9% | -3.47% | 53.1% | -9.06% | -3.86% | -4.48% | 10.4% | 10.8% | 43.6% | – | – | – | – |
| CCc1ccc(OCc2ccccc2C(=O)Nc2ccc3nc(C)cc(N)c3c2)cc1 | 43.2% | -4.06% | 77.8% | -2.29% | -3.13% | 16.5% | – | 12.5% | – | – | 71.5% | 82.5% | – |
| CC(C1CC2CCC1C2)n1c(S)nnc1-c1ccco1 (centres undefined) | 23.6% | 1.64% | 19.9% | -6.26% | 13.7% | 9.84% | 19.5% | -7.6% | 22.6% | – | – | – | – |
| CSc1ccc(C(=O)N[C@@H]2CCCC[C@@H]2NC(=O)CNC(=O)c2cc(C(F)(F)F)ccc2NC(=O)NC(C)C)cc1 | 13.3% | 0.537% | 2.07% | -0.695% | 0.0151% | 14.5% | -1.67% | -0.224% | 20.7% | – | – | – | – |
| CC(Cc1ccc(O)c(O)c1)C(C)Cc1ccc(O)c(O)c1 (centres undefined) | 58.5% | 12.4% | 35.6% | 1.91% | -6.33% | 0.265% | 19.4% | 28.8% | 40% | – | – | – | – |
| CC(C)(C#Cc1ccc(NC(=O)COc2ccccc2C(=O)c2ccccc2)c(Cl)c1)C(=O)O | 83.7% | -9.68% | 16.2% | 7.11% | 12.2% | 15.6% | 115% | 49.5% | 61.6% | – | – | – | – |
| O=C(Nc1ccc(Cl)nc1)c1ccc(Cl)cc1 | 19.3% | 6.68% | 26.6% | 1.37% | 3.71% | 5.25% | 18.7% | 6.76% | 21.2% | – | – | – | – |
| Cn1c(SCc2ccc(C(C)(C)C)cc2)nc(N)cc1=O | 12.4% | -0.435% | 6.33% | -6.37% | -4.37% | 5.25% | 9.09% | -4.44% | 8.05% | – | – | – | – |
| COc1ccc2[nH]cc(CCNC(C)=O)c2c1 | -1.65% | 1.13% | 19.4% | -7.83% | -7.74% | 1.51% | -3.95% | -4.66% | 5.88% | – | – | – | – |
| CCOC(=O)c1cc(C#N)c(N2CCC(C(=O)NS(=O)(=O)Cc3ccccc3)CC2)nc1C | 12% | -0.649% | 13.3% | -6.55% | 7.04% | -3.73% | 0.797% | 4.63% | 22.6% | – | – | – | – |
| Cc1cnc(-c2cc(N3CCN(C(=O)CCS(C)(=O)=O)CC3)ncc2Cl)c(C)c1 | – | – | 0.917% | – | – | -4.23% | -9.96% | -3.06% | – | 15.8% | – | – | – |
| COc1ccc(CNC(=O)c2cc(-c3cncc(Cl)c3)cnc2-c2ccccn2)nc1OC | 0.324% | -8.51% | -1% | -5.71% | -1.29% | 6.5% | -0.668% | -1.43% | 11.4% | – | – | – | – |
| COc1ccccc1/C=N/NC(=O)COc1ccc(Cl)cc1C | 18.4% | 8.6% | 10.8% | -5.19% | 14% | -3.15% | 9.76% | 2.66% | 18.2% | – | – | – | – |
| CC(C)NCC(O)COc1ccc(CCOCC2CC2)cc1 (centres undefined) | 4.74% | -5.99% | -5.48% | -7.33% | 5.49% | -0.983% | -1.52% | -0.494% | 21.4% | – | – | – | – |
| COc1ccc(S(=O)(=O)N2c3ccc(Cl)cc3[C@](O)(c3ccccc3Cl)[C@@H]2C(=O)N2CCC[C@H]2C(N)=O)cc1OC | -7.23% | -2.72% | 28.9% | -8.37% | -8.03% | -0.733% | 8.66% | -5.95% | 10.6% | – | – | – | – |
| CCCCCNC(=N)N/N=C/c1c[nH]c2ccc(OC)cc12 | – | -9.54% | 114% | -3.68% | -3.67% | 20.7% | – | 2.43% | – | – | 108% | 103% | 114% |
| COc1cc2nc(N3CCN(C(=O)c4ccco4)CC3)nc(N)c2cc1OC | 7.24% | 5.73% | 14% | -8.11% | -2.6% | 10% | 11.1% | 0.771% | 4.76% | – | – | – | – |
